Source: patent US20110269797A1, “ANLN PROTEIN AS AN ENDOCRINE TREATMENT PREDICTIVE FACTOR” (ATLAS ANTIBODIES AB, priority 2008, published 2011)
“Also recorded” adds a separate entry of the source.

Assays:
ERα+/PR− tumors = conditions: follow-up period of 6 years, Dowsett 2005; cited from earlier work
primary breast cancer = assay: Consecutive cohort TMA (Cohort I), survival analysis of tamoxifen-treated ER+ subjects by ANLN protein level; assay type: in vivo, human; conditions: ER+ subjects given adjuvant tamoxifen; cut off nf 1%; FIG. 6, p=0.018
Description: Archival formalin-fixed paraffin-embedded tissue from 498 patients diagnosed with primary breast cancer between 1988 and 1992 was collected from the Department of Pathology, Malmo University Hospital, Sweden. The median age of patients was 65 (range 27-96) years and median follow-up time was 128 months (0-207). Information regarding the date of death was obtained from the regional cause-of-death registries for all patients. Ethical permission was obtained from the Local Ethics Committee of Lund University.
All 498 cases of breast cancer were histopathologically reevaluated on slides stained with hematoxylin and eosin. TMA:s were constructed by sampling 2×1.0 mm cores per case from areas representative of invasive cancer, using a manual arraying device (ATA-27, Beecher Inc, Sun Prairie, Wis., USA). The TMA:s were prepared and automated IHC was performed as described in section 3 above, using the ANLN protein antibody prepared as described in section 2 above. IHC staining of ER had been performed previously. […]
For statistical analyses, the nucleic fraction (nf) level was evaluated, in line with what is described in Examples, Section 3 above. The nuclear fraction was subjectively evaluated in accordance to standards used in clinical histo-pathological diagnostics and outcome was classified as ≦1%, 2-25%, 26-75% or >75%. […]

[1] = tested on: stage II primary breast carcinoma; assay: Randomized premenopausal tamoxifen trial, Cohort II TMA, Kaplan-Meier survival analysis by ANLN protein level; assay type: in vivo, human
Description: Median age at diagnosis was 45 (25-57) years. Median follow-up was 13.9 years and less than 2% of the patients had received adjuvant chemotherapy. The study design is described in detail elsewhere (Rydén L et al, Eur J Cancer, 2005, 41(2): 256-64). Ethical permission was obtained from the Local Ethics Committees at Lund and Linkoping Universities.
All cases had been histopathologically re-evaluated on hematoxylin and eosin stained slides. TMA:s were constructed by sampling 2×0.6 mm cores per case from areas representative of invasive cancer, using an automated arraying device (ATA-27, Beecher Inc, Sun Prairie, Wis., USA). The TMA:s were prepared and automated IHC was performed as described in section 3 above, using the ANLN protein antibody prepared as described in section 2 above. IHC staining of ER had been performed previously. In line with current clinical praxis, a cut-off at 10% positive nuclei was used to define hormone receptor positivity.
For statistical analyses, categories were based on nuclear fraction (nf). nf was evaluated as in Examples, section 4, above. As with “the fraction of stained cells” in Examples, Section 3 above, nf was classified as ≦1%, 2-25%, 26-75% or >75%. For this purpose the 2-25% group were split into two groups namely 2-10% and >10-25%. Based on the survival trends for all different strata, dichotomized variables were constructed for further statistical analyses. […] Subsequently, groups denoted “high” or “low” were established based on ANLN protein expression. In a first analysis, the “high” group represented a nuclear fraction (nf) of >1%, and the “low” group a nuclear fraction≦1%. In a second analysis, the “high” group represented a nuclear fraction (nf) of >10%, and the “low” group a nuclear fraction≦10%.
In a third analysis, the “high” group represented a nuclear fraction (nf) of 26%, and the “low” group a nuclear fraction≦25%. This classification of samples was used for OS, RFS and BOSS analysis according to the Kaplan-Meier estimator, and the log-rank test was used to compare survival in different strata. All statistical tests were two-sided, and p-values of <[…] were considered significant. All calculations were made with the statistical package SPSS 16.0 (SPSS Inc. Ill., USA).

breast cancer = conditions: cited from earlier work

CC(C)(C#N)c1cc(Cn2cncn2)cc(C(C)(C)C#N)c1 [anastrozole]
recurrence rate compared to patients treated with tamoxifen (ERα+/PR− tumors): halved

CC/C(=C(\c1ccccc1)c1ccc(OCCN(C)C)cc1)c1ccccc1 [tamoxifen]
probability of recurrence free survival, ANLN protein low versus high subjects treated with tamoxifen (primary breast cancer): significantly better | benefit from tamoxifen treatment (RFS, BCSS, OS) ([1]; ER positive ANLN protein low patients (nf≦10%), TAM vs ctrl, FIGS. 14a, 15a, 16a): particularly beneficial; also recorded: at least slightly, benefit | impact of tamoxifen treatment on survival (RFS, BCSS, OS) ([1]; ER positive patients with high ANLN protein level (nf>10%), TAM vs ctrl, FIGS. 14b, 15b, 16b): limited or no impact | RFS of ANLN protein low versus ANLN protein high patients treated with tamoxifen ([1]; adjuvant tamoxifen 2 years, cut off 1% and 10%, FIG. 8): significantly better | effect of tamoxifen treatment on RFS ([1]; ductal carcinoma subgroup, ANLN protein low (nf≦10%), TAM vs ctrl, FIG. 20a): effective | impact of tamoxifen treatment on RFS outcome ([1]; ductal carcinoma subgroup, high ANLN protein level (nf>10%), TAM vs ctrl, FIG. 20b): no positive impact on the outcome | impact of tamoxifen treatment on RFS outcome ([1]; subjects with high ANLN protein level (nf>10%), TAM 2 years vs ctrl, FIG. 11): no positive impact on the outcome | ERα positive patients that do not respond to tamoxifen treatment (breast cancer; Riggins 2007, Gruvberger-Saal 2007): 30-40% | breast cancer mortality (breast cancer; five years adjuvant treatment after primary surgery, ER positive tumors, irrespective of lymph node status, EBCTCG 1998): reduces
